From patent publication US6429208B1, “Methods and compositions for restoring impaired cellular immune function” (Regents of the University of California, priority 1992, dated 2002)

Assays:
Type in all cases: cell-based, human
[1] = tested on: PBMC from HIV seropositive donors; experiment: Immunoglobulin / anti-HIV antibody production by PBMC from HIV seropositive donors; settings: 10 days
Method: Immunoglobulin production by B-cells is regulated by T-cells; CD4 provides “help” for de novo synthesis and CD8 suppresses immunoglobulin production. In HIV infection, increased total immunoglobulin production with a decrease in certain specific HIV antibodies to HIV GAG proteins during infection is a common finding (Lange, et al. AIDS (1987) 1:155-9). In this experiment, 10^6 PBMC from HIV seropositive donors were incubated in 1 ml cultures with and without ddAdo (1-100 ng/ml) for 10 days. IgG and anti-HIV antibodies in supernatant were measured by ELISA. p24 binding capacity was measured with a kit from DuPont following the manufacturer's protocol. Addition of ddAdo to cultures of PBMC from HIV seropositive subjects restored production of specific antibodies to p24 (Table 3). An effect of ddAdo on T-cells has been shown above but a possible direct effect on B-cells cannot be ruled out.
Addition of ddAdo to cultures of PBMC from HIV seropositive subjects increased spontaneous anti-p24 antibodies in individuals with none/low spontaneous production (p24 is an HIV core protein). One million PBMC from HIV seropositive donors were incubated in 1 ml cultures with and without ddAdo (1-100 ng/ml) for 10 days. IgG10 and production of anti-HIV antibodies to p24 in supernatants were measured by ELISA. p24 binding capacity was measured with a kit from DuPont (Delaware) following the manufacturer's protocol.

PBMC = experiment: Proliferative response to PHA after preincubation with HIV components; settings: HIV components 1 hour, wash, ddAdo 10 minutes, 5 of 5 experiments, FIG. 7
Method: Proliferative assays were performed as previously described (see, for example, Hofmann, B., et al., Cell Immunol (1989) 121:336-48. Briefly, one microcurie ^3H-thymidine was added to cultures 72 hours after stimulation, and after further 24 hours, all cultures were harvested on glass fiber filters with an automatic harvesting machine (Skatron, Lierbyen, Norway), and the incorporated radioactivity was measured in a liquid scintillation counter (Beckman LS 1800) after an addition of 1.5 ml scintillation fluid.
HIV components were added to PBMC for 1 hour followed by washing and then treating the cells with dideoxyadenosine (ddAdo) for 10 minutes, again followed by washing. Under these circumstances, the proliferative response to PHA could be restored (FIG. 7).

[2] = tested on: PBMC from HIV seronegative controls; experiment: Proliferative response to Candida albicans, HIV seronegative controls; settings: seven HIV seronegative controls; without ddAdo 6600 (±2000)
Method: Proliferative assays were done in triplicates of 50,000 PBMC in 200 μL RPMI with 10% FCS and 8 μg/ml of Candida albicans. ddAdo was added in two-fold dilutions; tritiated thymidine was added at day 5 and cells were harvested at day 6. Concentrations of ddAdo from 12.5 to 50 ng/ml gave the highest responses. […] Ratio 1:12 gave 48% (±12) without and 76% (±9) with ddAdo during priming. Ratio 1:25 gave 61% (±15) without and 77% (±9) with ddAdo.

C[C@H]1O[C@@H](n2cnc3c(N)ncnc32)C[C@@H]1O [ddAdo, 2′,5′ dideoxyadenosine]
p24 Binding Capacity ([1]; Patient 1, none 0): 14 pg/mL | IgG ([1]; Patient 1, none 326): 367 µg/mL | Anti-HIV Ab ([1]; Patient 1, none .5910): .5300 OD | p24 Binding Capacity ([1]; Patient 2, none 0): 16 pg/mL | IgG ([1]; Patient 2, none 98): 89 µg/mL | Anti-HIV Ab ([1]; Patient 2, none .1320): .1940 OD | p24 Binding Capacity ([1]; Patient 3, none 0): 88 pg/mL | Anti-HIV Ab ([1]; Patient 3, none 1.1390): 1.0820 OD | IgG ([1]; Patient 3, none 366): 309 µg/mL | p24 Binding Capacity ([1]; Patient 4, none 25): 49 pg/mL | IgG ([1]; Patient 4, none 123): 142 µg/mL | Anti-HIV Ab ([1]; Patient 4, none .2000): .1640 OD | p24 Binding Capacity ([1]; Patient 5, none 41): 32 pg/mL | IgG ([1]; Patient 5, none 55): 192 µg/mL | Anti-HIV Ab ([1]; Patient 5, none .1480): .1360 OD | p24 Binding Capacity ([1]; Patient 6, none 60): 50 pg/mL | IgG ([1]; Patient 6, none 76): 80 µg/mL | Anti-HIV Ab ([1]; Patient 6, none .0330): .0330 OD | IgG ([1]; Patient 7, none 244): 145 µg/mL | p24 Binding Capacity ([1]; Patient 7, none 376): 418 pg/mL | Anti-HIV Ab ([1]; Patient 7, none .0570): .2990 OD | IgG ([1]; Patient 8, none 143): 170 µg/mL | p24 Binding Capacity ([1]; Patient 8, none 1540): 1560 pg/mL | Anti-HIV Ab ([1]; Patient 8, none .4860): .3900 OD | Proliferative response to PHA (PBMC): restored | Responses to Candida albicans [2]: 7600 (±1.9) cpm
